# Source: paper PMC3866048 (Bioorganic & medicinal chemistry, 2011)
# Read-outs that look alike come from different tables or passages of the source.
# Tests used:
# [1] = biological target: T1, HIV-1 integrase (wild-type IN) (Human immunodeficiency virus type 1 group M subtype B, UniProt P12497); assay: biochemical
# [2] = biological target: T1, HIV-1 integrase (wild-type IN); assay: biochemical; remark: listed apart in the source
# [3] = test system: wild-type HIV-1 strain (strain LAI); assay: Anti-HIV-1 activity in infected human PBMCs; type: cell-based; details: cytotoxicity versus anti-HIV activity
# [4] = Actual ST pIC50, −log IC50 of strand transfer, used for 3D-QSAR
# [5] = IC50 ST (strand transfer), wild-type IN 200 nM, 7.5 mM MnCl2
Structure (SMILES),"IC50 [1, 5]",IC50 [2],also measured
"O=C(O)c1cc(Br)cc(C(=O)/C=C/c2c(Cl)ccc(Cl)c2Cl)c1O [Compound 25, 5-Bromo-2-hydroxy-3-[3-(2,3,6-trichlorophenyl)-acryloyl]benzoic acid]",< 3.7 µM,,"IC50 [1, 4]: 3.98 µM"
"O=C(/C=C/c1cc(Cl)cc(Cl)c1Cl)c1cc(Br)cc([N+](=O)[O-])c1O [Compound 58, 1-(5-Bromo-2-hydroxy-3-nitrophenyl)-3-(2,3,5-trichlorophenyl)propenone]",68 ± 5 µM,> 333 µM,"IC50 [1, 4]: 69.2 µM"
"N#Cc1cc(Br)cc(C(=O)/C=C/c2c(Cl)ccc(Cl)c2Cl)c1O [Compound 56, 5-Bromo-2-hydroxy-3-[3-(2,3,6--trichlorophenyl)-acryloyl]benzonitrile]",,> 100 µM,
"O=C(O)c1cc(Br)cc(C(=O)/C=C/c2ccccc2-c2ccco2)c1O [Compound 50, 5-Bromo-3-[3-(2-furan-2-yl-phenyl)-acryloyl]-2-hydroxybenzoic acid]",,> 100 µM,
"O=C(NCc1ccc(F)cc1)c1cc(Br)ccc1O [Compound 63, 5-Bromo-N-(4-fluoro-benzyl)-2-hydroxybenzamide]",> 100 µM,,
"O=C(O)c1cc(F)cc(C(=O)CCc2cc(Cl)ccc2Cl)c1O [Compound 60, 3-[3-(2,5-dichlorophenyl)propionyl]-5-fluoro-2-hydroxybenzoic acid]",,> 100 µM,
"COc1ccc2cc(C=CC(=O)c3cc(Br)cc(C(=O)O)c3O)ccc2c1 [Compound 48, 5-Bromo-2-hydroxy-3-[3-(6-methoxynaphthalen-2-yl)-acryloyl]benzoic acid]",54 ± 25 µM,,"IC50 [1, 4]: 55 µM"
"O=C(O)c1cc(Br)cc(C(=O)/C=C/c2cccc(OC(F)(F)F)c2)c1O [Compound 52, 5-Bromo-2-hydroxy-3-[3-(3-trifluoromethoxyphenyl)-acryloyl]benzoic acid]",,> 100 µM,
"O=C(O)c1cccc(CCCc2ccccc2)c1O [Compound 9, 2-hydroxy-3-(3-phenylpropyl)benzoic acid]",> 100 µM,91 µM,
"Cc1cc(C)cc(/C=C/C(=O)c2cc(Br)cc(C(=O)O)c2O)c1 [Compound 39, 5-Bromo-3-[3-(3,5-dimethylphenyl)-acryloyl]-2-hydroxybenzoic acid]",,> 100 µM,
"O=C(O)c1cc(Br)cc(C(=O)/C=C/c2ccc3sccc3c2)c1O [Compound 49, 3-(3-Benzo[b]thiophen-5-yl-acryloyl)-5-bromo-2-hydroxybenzoic acid]",,,Selectivity index [3]: up to 4 fold
"COc1ccc(/C=C/C(=O)c2cc(Br)cc(C(=O)O)c2O)c(Cl)c1OC [Compound 40, 5-Bromo-3-[3-(2-chloro-3,4-dimethoxyphenyl)-acryloyl]-2-hydroxybenzoic acid]",,> 100 µM,
"COc1cc(F)c(/C=C/C(=O)c2cc(Br)cc(C(=O)O)c2O)cc1OC [Compound 41, 5-Bromo-3-[3-(2-fluoro-4,5-dimethoxyphenyl)-acryloyl]-2-hydroxybenzoic acid]",,> 100 µM,
"O=C(O)c1cc(Br)cc(C(=O)NCc2ccc(F)cc2)c1O [Compound 61, 5-Bromo-N-(4-fluorobenzyl)-2-hydroxyisophthalamic acid]",,> 100 µM,
"Cc1cc(C(=O)O)c(O)c(C(=O)/C=C/c2c(Cl)ccc(Cl)c2Cl)c1 [Compound 57, 2-Hydroxy-5-methyl-3-[3-(2,3,6-trichlorophenyl)-acryloyl]benzoic acid]",,> 100 µM,"Times less active than corresponding Br-substituted compound 25 ([1]; ST inhibition, comparison with compound 25): 13 times"
"O=C(/C=C/c1c(Cl)ccc(Cl)c1Cl)c1cc(Br)cc([N+](=O)[O-])c1O [Compound 59, 1-(5-Bromo-2-hydroxy-3-nitrophenyl)-3-(2,3,6-trichlorophenyl)propenone]",21 ± 3 µM,36 ± 4 µM,"IC50 [1, 4]: 21.4 µM"
"Cc1cccc(C(=O)NCc2ccc(F)cc2)c1O [Compound 62, N-(4-Fluoro-benzyl)-2-hydroxy-3-methylbenzamide]",> 100 µM,,
"O=Cc1cc(Br)cc(C(=O)NCc2ccc(F)cc2)c1O [Compound 8, 5-Bromo-N-(4-fluorobenzyl)-3-formyl-2-hydroxybenzamide]",,> 100 µM,
"O=C(O)c1cc(Cl)cc(C(=O)/C=C/c2ccc(Cl)cc2Cl)c1O [Compound 27, 5-Chloro-3-[3-(2,4-dichlorophenyl)-acryloyl]-2-hydroxybenzoic acid]",> 100 µM,,
